# Data published in patent US7196110B2, “N-substituted tricyclic 3-aminopyrazoles as inhibitors for the treatment of cell proliferative disorders” (Janssen Phamaceutica N.V., priority 2002, dated 2007).
# Where two headings read alike, the source gives them in different places.
# Molecular target: T1, PDGF-receptor beta enzyme comprising the tyrosine kinase domain (Homo sapiens, UniProt P09619)
# T1 construct: from amino acid 545 to 1106 of GenBank Access NO: AAA36427
# Test: Inhibition of PDGF-receptor kinase activity (cell-free, PLC1 peptide, 33P Flashplate)
# Assay type: biochemical
# Details: for inhibition at 10 µM: read-out: Percent Inhibition @ 10 uM
# How it was run: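 Recombinant kinase domain (aa 545–1106) phosphorylated a biotinylated PLC1 peptide with 5 μM ATP plus 33P-γ-ATP, in Tris pH 8, MgCl2, Na3VO4 and 1 mM DTT, for 60 min at 30 °C. Retained 33P was counted after washing. IC50 is the concentration halving activity versus no-inhibitor reactions.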
# [1] = PDGF-R kinase activity, compound at 10 uM
# [2] = PDGF-R kinase activity, read-out: IC50
# T1 sequence (P09619 545-1106): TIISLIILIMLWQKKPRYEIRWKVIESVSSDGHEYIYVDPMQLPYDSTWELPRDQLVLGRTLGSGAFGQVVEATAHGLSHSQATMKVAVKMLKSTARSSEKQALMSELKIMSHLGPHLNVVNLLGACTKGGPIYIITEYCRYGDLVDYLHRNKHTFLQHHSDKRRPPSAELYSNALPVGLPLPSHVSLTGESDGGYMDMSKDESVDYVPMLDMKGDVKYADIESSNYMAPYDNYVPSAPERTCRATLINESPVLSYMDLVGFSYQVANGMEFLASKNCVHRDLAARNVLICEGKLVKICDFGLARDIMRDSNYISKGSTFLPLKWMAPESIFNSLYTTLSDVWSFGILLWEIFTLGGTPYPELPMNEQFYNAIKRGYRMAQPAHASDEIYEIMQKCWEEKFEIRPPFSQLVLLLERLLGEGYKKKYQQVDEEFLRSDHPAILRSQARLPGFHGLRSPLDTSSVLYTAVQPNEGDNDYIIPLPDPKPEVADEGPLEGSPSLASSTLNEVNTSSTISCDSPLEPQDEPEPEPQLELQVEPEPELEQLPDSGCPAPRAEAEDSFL
Compound,inhibition at 10 µM [1] [%],IC50 [2] [µM],"IC50 (IC50 (μM), PDGF-R kinase activity) [µM]",inhibition at 10 µM [%]
"COC(=O)C(NC(=O)n1nc2c(c1Nc1cccc(F)c1)Cc1cc(OC)c(OC)cc1-2)C(C)C (stereo not shown) [Compound 413, 2-{[3-(3-Fluoro-phenylamino)-6,7-dimethoxy-4H-indeno[1,2-c]pyrazole-2-carbonyl]-amino}-3-methyl-butyric acid methyl ester]",71,1.14,–,–
"Fc1cccc(F)c1CNc1[nH]nc2c1Cc1c(OCCCN3CCOCC3)cccc1-2 [Compound 414, (2,6-Difluoro-benzyl)-[5-(3-morpholin-4-yl-propoxy)-2,4-dihydro-indeno[1,2-c]pyrazol-3-yl]-amine]",80.5,0.564,–,–
"Fc1ccccc1CNc1[nH]nc2c1Cc1c(OCCCN3CCOCC3)cccc1-2 [Compound 416, (2-Fluoro-benzyl)-[5-(3-morpholin-4-yl-propoxy)-2,4-dihydro-indeno[1,2-c]pyrazol-3-yl]-amine]",72.5,1.19,–,–
"COc1cc(Nc2[nH]nc3c2Cc2c(OC)cccc2-3)cc(C(F)(F)F)c1 [Compound 417, (5-Methoxy-2,4-dihydro-indeno[1,2-c]pyrazol-3-yl)-(3-methoxy-5-trifluoromethyl-phenyl)-amine]",27.5,12.2,–,–
"COc1cccc2c1Cc1c-2n[nH]c1Nc1cccc(S(N)(=O)=O)c1 [Compound 418, 3-(5-Methoxy-2,4-dihydro-indeno[1,2-c]pyrazol-3-ylamino)-benzenesulfonamide]",82.5,0.892,–,–
"CCC1c2cc(OC)c(OC)cc2-c2n[nH]c(Nc3cccc(F)c3)c21 (stereo not shown) [Compound 421, (4-Ethyl-6,7-dimethoxy-2,4-dihydro-indeno[1,2-c]pyrazol-3-yl)-(3-fluoro-phenyl)-amine]",100,0.0822,–,–
"COc1cccc2c1Cc1c-2n[nH]c1NCc1c(F)cccc1F [Compound 423, (2,6-Difluoro-benzyl)-(5-methoxy-2,4-dihydro-indeno[1,2-c]pyrazol-3-yl)-amine]",90,0.181,–,–
"COc1cc2c(cc1OC)-c1n[nH]c(NCc3cccc(Cl)c3)c1C2 [Compound 424, (3-Chloro-benzyl)-(6,7-dimethoxy-2,4-dihydro-indeno[1,2-c]pyrazol-3-yl)-amine]",100,0.0791,–,–
"COc1cc2c(cc1F)Cc1c-2n[nH]c1NCc1ccccc1C [Compound 425, (6-Fluoro-7-methoxy-2,4-dihydro-indeno[1,2-c]pyrazol-3-yl)-(2-methyl-benzyl)-amine]",96,0.0023,–,–
"COc1cc2c(cc1F)Cc1c-2n[nH]c1NCc1ccccc1F [Compound 426, (2-Fluoro-benzyl)-(6-fluoro-7-methoxy-2,4-dihydro-indeno[1,2-c]pyrazol-3-yl)-amine]",97,0.241,–,–
"COc1cc2c(cc1OC)-c1c(c(Nc3cccc(F)c3)nn1C(=O)c1ccccc1)C2 [Compound 427, [3-(3-Fluoro-phenylamino)-6,7-dimethoxy-4H-indeno[1,2-c]pyrazol-1-yl]-phenyl-methanone]",80,1.15,–,–
"COC(=O)CCC(=O)n1nc(Nc2cccc(F)c2)c2c1-c1cc(OC)c(OC)cc1C2 [Compound 428, 4-[3-(3-Fluoro-phenylamino)-6,7-dimethoxy-4H-indeno[1,2-c]pyrazol-1-yl]-4-oxo-butyric acid methyl ester]",85.5,0.432,–,–
"CCOC(=O)CCC(=O)n1nc(Nc2cccc(F)c2)c2c1-c1cc(OC)c(OC)cc1C2 [Compound 429, 4-[3-(3-Fluoro-phenylamino)-6,7-dimethoxy-4H-indeno[1,2-c]pyrazol-1-yl]-4-oxo-butyric acid ethyl ester]",72,0.671,–,–
"CCOP(=O)(OCC)n1nc(Nc2cccc(F)c2)c2c1-c1cc(OC)c(OC)cc1C2 [Compound 446, [3-(3-Fluoro-phenylamino)-6,7-dimethoxy-4H-indeno[1,2-c]pyrazol-1-yl]-phosphonic acid diethyl ester]",–,–,0.266,93.5

# Further lines, with some results ahead:
inhibition at 10 µM [1] [%],IC50 [2] [µM],Compound,"IC50 (IC50 (μM), PDGF-R kinase activity) [µM]",inhibition at 10 µM [%]
61.5,0.571,"CCC(=O)n1nc(Nc2cccc(F)c2)c2c1-c1cc(OC)c(OC)cc1C2 [Compound 430, 1-[3-(3-Fluoro-phenylamino)-6,7-dimethoxy-4H-indeno[1,2-c]pyrazol-1-yl]-propan-1-one]",–,–
84.5,0.444,"COc1cc2c(cc1OC)-c1c(c(Nc3cccc(F)c3)nn1C(=O)C(C)C)C2 [Compound 431, 1-[3-(3-Fluoro-phenylamino)-6,7-dimethoxy-4H-indeno[1,2-c]pyrazol-1-yl]-2-methyl-propan-1-one]",–,–
86,0.503,"COC(=O)n1nc2c(c1Nc1cccc(F)c1)Cc1cc(OC)c(OC)cc1-2 [Compound 434, 3-(3-Fluoro-phenylamino)-6,7-dimethoxy-4H-indeno[1,2-c]pyrazole-2-carboxylic acid methyl ester]",–,–
67,1.59,"CCOC(=O)n1nc2c(c1Nc1cccc(F)c1)Cc1cc(OC)c(OC)cc1-2 [Compound 435, 3-(3-Fluoro-phenylamino)-6,7-dimethoxy-4H-indeno[1,2-c]pyrazole-2-carboxylic acid ethyl ester]",–,–
83.5,0.291,"COCCOC(=O)n1nc2c(c1Nc1cccc(F)c1)Cc1cc(OC)c(OC)cc1-2 [Compound 437, 3-(3-Fluoro-phenyl-amino)-6,7-dimethoxy-4H-indeno[1,2-c]pyrazole-2-carboxylic acid 2-methoxy-ethyl ester]",–,–
77.5,0.992,"COCCOC(=O)n1nc(Nc2cccc(F)c2)c2c1-c1cc(OC)c(OC)cc1C2 [Compound 438, 3-(3-Fluoro-phenylamino)-6,7-dimethoxy-4H-indeno[1,2-c]pyrazole-1-carboxylic acid 2-methoxy-ethyl ester]",–,–
69.5,0.62,"COC(=O)n1nc(Nc2cccc(F)c2)c2c1-c1cc(OC)c(OC)cc1C2 [Compound 439, 3-(3-Fluoro-phenylamino)-6,7-dimethoxy-4H-indeno[1,2-c]pyrazole-1-carboxylic acid methyl ester]",–,–
89.5,0.0457,"OCCCOc1cccc2c1Cc1c-2n[nH]c1Nc1cccc(Cl)c1 [Compound 440, 3-[3-(3-Chloro-phenylamino)-2,4-dihydro-indeno[1,2-c]pyrazol-5-yloxy]-propan-1-ol]",–,–
96,0.206,"CCOc1cccc(Nc2[nH]nc3c2Cc2c(OCCCO)cccc2-3)c1 [Compound 441, 3-[3-(3-Ethoxy-phenylamino)-2,4-dihydro-indeno[1,2-c]pyrazol-5-yloxy]-propan-1-ol]",–,–
94.5,0.205,"OCCCOc1cccc2c1Cc1c-2n[nH]c1Nc1cccc(F)c1 [Compound 442, 3-[3-(3-Fluoro-phenylamino)-2,4-dihydro-indeno[1,2-c]pyrazol-5-yloxy]-propan-1-ol]",–,–
89.5,0.098,"OCCCOc1cccc2c1Cc1c-2n[nH]c1NCc1c(F)cccc1F [Compound 443, 3-[3-(2,6-Difluoro-benzylamino)-2,4-dihydro-indeno[1,2-c]pyrazol-5-yloxy]-propan-1-ol]",–,–
79.5,0.518,"OCCCOc1cccc2c1Cc1c-2n[nH]c1NCc1ccccc1F [Compound 444, 3-[3-(2-Fluoro-benzylamino)-2,4-dihydro-indeno[1,2-c]pyrazol-5-yloxy]-propan-1-ol]",–,–
95,0.0253,"Cc1ccccc1CNc1[nH]nc2c1Cc1c(OCCCO)cccc1-2 [Compound 445, 3-[3-(2-Methyl-benzylamino)-2,4-dihydro-indeno[1,2-c]pyrazol-5-yloxy]-propan-1-ol]",–,–
7,–,"COc1cc2c(cc1OC)-c1c(c(Nc3cccc(F)c3)nn1S(=O)(=O)N(C)C)C2 [Compound 447, 3-(3-Fluoro-phenylamino)-6,7-dimethoxy-4H-indeno[1,2-c]pyrazole-1-sulfonic acid dimethylamide]",–,–
100,0.000938,"COc1cc2c(cc1OCC(O)CO)Cc1c-2n[nH]c1NCc1c(Cl)cccc1Cl (stereo not shown) [Compound 450, 3-[3-(2,6-Dichloro-benzylamino)-7-methoxy-2,4-dihydro-indeno[1,2-c]pyrazol-6-yloxy]-propane-1,2-diol]",–,–
99.5,0.002,"COc1cc2c(cc1OCC(O)CO)Cc1c-2n[nH]c1NCc1ccccc1Cl (stereo not shown) [Compound 451, 3-[3-(2-Chloro-benzylamino)-7-methoxy-2,4-dihydro-indeno[1,2-c]pyrazol-6-yloxy]-propane-1,2-diol]",–,–
88,0.829,"COc1ccncc1Nc1[nH]nc2c1Cc1cc(OC)c(OC)cc1-2 [Compound 453, (6,7-Dimethoxy-2,4-dihydro-indeno[1,2-c]pyrazol-3-yl)-(4-methoxy-pyridin-3-yl)-amine]",–,–
99,0.258,"COc1cc2c(cc1OC)-c1n[nH]c(Nc3c(OC)ccnc3OC)c1C2 [Compound 454, (6,7-Dimethoxy-2,4-dihydro-indeno[1,2-c]pyrazol-3-yl)-(2,4-dimethoxy-pyridin-3-yl)-amine]",–,–
95,0.153,"COc1cc2c(cc1OC)-c1n[nH]c(NCc3cc(-c4ccccc4)on3)c1C2 [Compound 455, (6,7-Dimethoxy-2,4-dihydro-indeno[1,2-c]pyrazol-3-yl)-(5-phenyl-isoxazol-3-ylmethyl)-amine]",–,–
70.5,7,"COc1ccc(C(=O)n2nc(Nc3cccc(F)c3)c3c2-c2cc(OC)c(OC)cc2C3)cc1 [Compound 458, [3-(3-Fluoro-phenylamino)-6,7-dimethoxy-4H-indeno[1,2-c]pyrazol-1-yl]-(4-methoxy-phenyl)-methanone]",–,–
